From ChEMBL document CHEMBL1123893, “Synthesis and physicochemical properties of thiadiazolo[3,2-a]pyrimidinesulfonamides and thiadiazolo[3,2-a]triazinesulfonamides as candidates for topically effective carbonic anhydrase inhibitors” (J Med Chem, 1987)
Values after ≈ are worked out from the molar mass of the structure shown.

Assays:
Oryctolagus cuniculus [1] = organism: Oryctolagus cuniculus
Oryctolagus cuniculus [2] = organism: Oryctolagus cuniculus; assay: Evaluated for effect on intraocular pressure(IOP) in rabbit after 1 hour; type: functional, Eye
Oryctolagus cuniculus [3] = organism: Oryctolagus cuniculus; conditions: rabbit, in vivo
Description: Evaluated for first order rate constant (Kin) for transcorneal penetration in anesthetized rabbits

physchem [4] = conditions: buffer
Description: Evaluated for sulfonamide pKa, free acid water solubility

physchem [5] = assay: physchem
Description: Compound was evaluated for its solubility in water

[6] = octanol/water, pH 7.4
Description: Evaluated for lipid solubility measured as partition coefficient at a pH 7.4 (CHCl3/buffer)

Description for Carbonic anhydrase: Evaluated for its activity against carbonic anhydrase (CA) in anesthetized rabbits

| SMILES | I50 (Carbonic anhydrase) | Effect (Oryctolagus cuniculus [1]) | other results |
| --- | --- | --- | --- |
| Cn1c(=O)nc2sc(S(N)(=O)=O)nn2c1=O | 20 nM | -1 mmHg | – |
| NS(=O)(=O)c1nn2c(O)cc(=O)nc2s1 | 37 nM | – | – |
| NS(=O)(=O)C1=NN2C(=NC(=O)NS2(=O)=O)S1 | 50 nM | 0 mmHg | – |
| NS(=O)(=O)c1nn2c(=O)n(CCCl)c(=O)nc2s1 | 18 nM | 0 mmHg | – |
| Cn1nc(S(N)(=O)=O)s/c1=N\C(=O)C(F)(F)F | – | – | Effect (Oryctolagus cuniculus [2]): -3.1 mmHg; Kin (Oryctolagus cuniculus [3]): 0.014 h⁻¹; pKa (physchem [4]): 6.6; solubility (physchem [5]; water): 8 mM (≈ 2320 µg/mL) |
| NS(=O)(=O)c1nn2c(=O)[nH]c(=O)nc2s1 | 20 nM | 0 mmHg | pKa (physchem [4]): 8.3; solubility (physchem [5]; water): 4 mM (≈ 997 µg/mL) |
| CCn1c(=O)nc2sc(S(N)(=O)=O)nn2c1=O | 20 nM | 0 mmHg | – |
| CC(=O)/N=c1/sc(S(N)(=O)=O)nn1C [METHAZOLAMIDE] | – | -0.6 mmHg | Kin (Oryctolagus cuniculus [3]): 0.006 h⁻¹; log D [6]: 0.06; solubility (physchem [5]; buffer): 5 mM (≈ 1180 µg/mL) |
| NS(=O)(=O)C1=NN2CCS(=O)(=O)N=C2S1 | 14 nM | 0 mmHg | – |
| COc1cc(=O)nc2sc(S(N)(=O)=O)nn12 | 50 nM | 0 mmHg | – |
